Experimental data: ChEMBL document CHEMBL5058643, “Data for DCP probe BI-2081” (2022)

Columns and labels:
Conditions in all cases: Compound concentration 10.0 uM
[1] = biological target: T1, 5-hydroxytryptamine receptor 1A (Homo sapiens) (UniProt P08908)
T1 sequence (whole entry): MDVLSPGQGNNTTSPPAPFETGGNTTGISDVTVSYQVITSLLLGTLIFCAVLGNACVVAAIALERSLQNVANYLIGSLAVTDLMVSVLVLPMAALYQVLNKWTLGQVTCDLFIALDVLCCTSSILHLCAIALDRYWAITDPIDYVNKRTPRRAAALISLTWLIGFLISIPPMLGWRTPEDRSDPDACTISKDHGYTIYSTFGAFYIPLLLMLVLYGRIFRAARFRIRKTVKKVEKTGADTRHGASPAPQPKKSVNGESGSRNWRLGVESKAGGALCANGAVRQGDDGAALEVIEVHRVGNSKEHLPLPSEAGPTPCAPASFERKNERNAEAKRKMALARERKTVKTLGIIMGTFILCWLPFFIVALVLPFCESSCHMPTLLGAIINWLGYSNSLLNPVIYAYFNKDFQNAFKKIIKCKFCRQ

[2] = biological target: T2, 5-hydroxytryptamine receptor 3A (Homo sapiens) (UniProt P46098)
T2 sequence (whole entry): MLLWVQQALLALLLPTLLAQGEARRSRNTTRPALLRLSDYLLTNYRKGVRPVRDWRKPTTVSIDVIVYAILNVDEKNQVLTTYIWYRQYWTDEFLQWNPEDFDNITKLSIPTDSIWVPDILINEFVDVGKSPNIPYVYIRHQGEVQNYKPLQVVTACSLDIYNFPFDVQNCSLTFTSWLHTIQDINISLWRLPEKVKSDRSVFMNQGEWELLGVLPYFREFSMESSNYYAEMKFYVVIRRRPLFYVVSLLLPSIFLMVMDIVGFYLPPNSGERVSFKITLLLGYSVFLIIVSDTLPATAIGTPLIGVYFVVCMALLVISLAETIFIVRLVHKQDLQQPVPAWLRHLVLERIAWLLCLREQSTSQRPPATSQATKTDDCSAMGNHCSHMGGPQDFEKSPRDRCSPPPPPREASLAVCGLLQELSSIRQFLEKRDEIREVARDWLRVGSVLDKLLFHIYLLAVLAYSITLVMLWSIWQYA

[3] = biological target: 5-hydroxytryptamine receptor 6 (Homo sapiens) (UniProt P50406)
[4] = biological target: 5-hydroxytryptamine receptor 7 (Homo sapiens) (UniProt P34969)
[5] = biological target: D(1B) dopamine receptor (Homo sapiens) (UniProt P21918)
[6] = biological target: Sodium-dependent serotonin transporter (Homo sapiens) (UniProt P31645)
[7] = biological target: Mu-type opioid receptor (Homo sapiens) (UniProt P35372)
[8] = biological target: T3, Alpha-2A adrenergic receptor (Homo sapiens) (UniProt P08913)
T3 sequence (whole entry): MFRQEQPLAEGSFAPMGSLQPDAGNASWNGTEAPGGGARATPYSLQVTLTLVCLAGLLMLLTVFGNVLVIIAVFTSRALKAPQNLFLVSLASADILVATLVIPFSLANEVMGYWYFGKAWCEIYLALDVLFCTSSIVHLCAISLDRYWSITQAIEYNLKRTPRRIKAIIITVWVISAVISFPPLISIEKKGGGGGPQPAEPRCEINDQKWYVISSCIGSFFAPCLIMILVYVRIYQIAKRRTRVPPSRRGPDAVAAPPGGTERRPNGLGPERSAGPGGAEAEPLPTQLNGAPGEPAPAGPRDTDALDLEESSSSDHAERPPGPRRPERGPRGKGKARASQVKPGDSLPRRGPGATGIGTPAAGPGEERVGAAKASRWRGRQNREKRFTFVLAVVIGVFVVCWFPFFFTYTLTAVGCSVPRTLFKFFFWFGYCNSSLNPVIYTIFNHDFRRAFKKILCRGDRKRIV

[9] = biological target: T4, Alpha-2B adrenergic receptor (Homo sapiens) (UniProt P18089)
T4 sequence (whole entry): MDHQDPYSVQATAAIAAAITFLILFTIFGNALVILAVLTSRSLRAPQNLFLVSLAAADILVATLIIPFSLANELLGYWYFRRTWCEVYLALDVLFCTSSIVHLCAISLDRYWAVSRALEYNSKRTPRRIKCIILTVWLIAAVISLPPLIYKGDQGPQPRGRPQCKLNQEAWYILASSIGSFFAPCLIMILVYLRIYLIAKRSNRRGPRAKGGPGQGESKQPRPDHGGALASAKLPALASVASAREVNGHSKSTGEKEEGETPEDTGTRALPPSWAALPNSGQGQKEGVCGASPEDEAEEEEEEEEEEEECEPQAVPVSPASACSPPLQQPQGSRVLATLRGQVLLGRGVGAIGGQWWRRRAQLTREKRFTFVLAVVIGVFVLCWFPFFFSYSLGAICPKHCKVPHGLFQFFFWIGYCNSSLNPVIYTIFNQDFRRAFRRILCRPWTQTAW

[10] = biological target: Muscarinic acetylcholine receptor M3 (Homo sapiens, UniProt P20309)
[11] = species on record: Rattus norvegicus
[12] = biological target: T5, Alpha-1D adrenergic receptor (Homo sapiens) (UniProt P25100)
T5 sequence (whole entry): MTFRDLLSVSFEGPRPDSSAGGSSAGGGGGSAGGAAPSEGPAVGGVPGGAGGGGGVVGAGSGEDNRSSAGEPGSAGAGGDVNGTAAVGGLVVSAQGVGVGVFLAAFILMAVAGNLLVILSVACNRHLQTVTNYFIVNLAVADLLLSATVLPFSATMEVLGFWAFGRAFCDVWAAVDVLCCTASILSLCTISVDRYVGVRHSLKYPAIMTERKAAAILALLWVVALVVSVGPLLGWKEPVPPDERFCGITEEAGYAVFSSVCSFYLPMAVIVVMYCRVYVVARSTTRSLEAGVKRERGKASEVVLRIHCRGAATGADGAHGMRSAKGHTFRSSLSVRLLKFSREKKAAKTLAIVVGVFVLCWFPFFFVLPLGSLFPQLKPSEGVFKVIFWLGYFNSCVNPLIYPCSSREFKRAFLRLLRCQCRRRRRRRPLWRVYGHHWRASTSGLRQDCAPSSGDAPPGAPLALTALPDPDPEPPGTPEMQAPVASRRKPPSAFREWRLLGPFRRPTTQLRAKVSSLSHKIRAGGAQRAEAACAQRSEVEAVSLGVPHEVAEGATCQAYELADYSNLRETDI

Measured: inhibition

Chain of Mu-type opioid receptor (Homo sapiens) (P35372 whole entry): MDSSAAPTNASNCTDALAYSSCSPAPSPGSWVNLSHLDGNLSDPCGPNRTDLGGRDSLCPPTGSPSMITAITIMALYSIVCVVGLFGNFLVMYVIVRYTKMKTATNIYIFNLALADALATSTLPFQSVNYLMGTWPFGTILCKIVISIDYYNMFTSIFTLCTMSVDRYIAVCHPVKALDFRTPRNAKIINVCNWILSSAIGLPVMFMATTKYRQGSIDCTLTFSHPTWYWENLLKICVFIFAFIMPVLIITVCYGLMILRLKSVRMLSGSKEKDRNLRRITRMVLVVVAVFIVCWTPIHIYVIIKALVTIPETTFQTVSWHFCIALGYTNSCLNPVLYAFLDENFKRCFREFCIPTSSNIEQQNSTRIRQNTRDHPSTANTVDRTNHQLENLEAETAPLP
Chain of 5-hydroxytryptamine receptor 6 (Homo sapiens) (P50406 whole entry): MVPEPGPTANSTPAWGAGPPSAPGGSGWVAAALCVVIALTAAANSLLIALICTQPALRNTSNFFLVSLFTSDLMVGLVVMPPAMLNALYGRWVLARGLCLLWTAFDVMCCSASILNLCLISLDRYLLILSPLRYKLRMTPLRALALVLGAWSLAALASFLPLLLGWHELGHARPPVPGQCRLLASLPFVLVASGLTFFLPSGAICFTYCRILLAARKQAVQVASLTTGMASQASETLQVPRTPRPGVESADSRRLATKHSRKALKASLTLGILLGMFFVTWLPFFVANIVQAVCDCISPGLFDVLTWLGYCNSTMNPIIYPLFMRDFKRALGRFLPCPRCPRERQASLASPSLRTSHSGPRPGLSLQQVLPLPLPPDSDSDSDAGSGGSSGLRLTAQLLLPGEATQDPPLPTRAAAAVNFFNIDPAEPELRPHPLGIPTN
Chain of D(1B) dopamine receptor (Homo sapiens) (P21918 whole entry): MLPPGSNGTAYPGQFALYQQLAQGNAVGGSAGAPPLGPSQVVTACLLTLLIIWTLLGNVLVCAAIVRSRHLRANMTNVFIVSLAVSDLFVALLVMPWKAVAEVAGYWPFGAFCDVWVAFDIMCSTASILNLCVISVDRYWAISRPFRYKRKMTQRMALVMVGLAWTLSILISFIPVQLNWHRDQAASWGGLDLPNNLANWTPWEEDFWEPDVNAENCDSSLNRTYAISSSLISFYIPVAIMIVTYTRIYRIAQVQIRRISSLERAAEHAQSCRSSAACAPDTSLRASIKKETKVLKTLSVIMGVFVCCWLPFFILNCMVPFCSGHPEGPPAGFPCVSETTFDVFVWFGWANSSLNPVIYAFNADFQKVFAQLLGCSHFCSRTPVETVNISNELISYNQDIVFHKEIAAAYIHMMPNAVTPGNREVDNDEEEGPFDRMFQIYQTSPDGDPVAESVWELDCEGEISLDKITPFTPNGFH
Chain of Sodium-dependent serotonin transporter (Homo sapiens) (P31645 whole entry, looked up): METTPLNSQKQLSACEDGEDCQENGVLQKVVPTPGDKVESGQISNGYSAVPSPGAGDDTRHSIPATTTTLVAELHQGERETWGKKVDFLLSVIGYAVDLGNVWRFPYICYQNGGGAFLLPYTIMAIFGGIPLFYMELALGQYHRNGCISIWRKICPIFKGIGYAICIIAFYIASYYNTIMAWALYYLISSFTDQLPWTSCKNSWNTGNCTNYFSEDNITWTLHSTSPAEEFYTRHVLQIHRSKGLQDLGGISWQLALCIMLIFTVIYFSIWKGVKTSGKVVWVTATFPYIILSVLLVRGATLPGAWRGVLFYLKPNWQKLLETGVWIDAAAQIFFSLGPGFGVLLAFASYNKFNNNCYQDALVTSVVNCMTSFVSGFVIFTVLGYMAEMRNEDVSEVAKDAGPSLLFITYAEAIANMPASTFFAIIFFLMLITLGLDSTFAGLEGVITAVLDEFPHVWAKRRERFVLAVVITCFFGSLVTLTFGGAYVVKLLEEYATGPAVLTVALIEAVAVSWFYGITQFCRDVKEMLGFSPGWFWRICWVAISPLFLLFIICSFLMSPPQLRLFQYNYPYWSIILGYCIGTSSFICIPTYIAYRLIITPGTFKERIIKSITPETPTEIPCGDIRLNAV
Chain of 5-hydroxytryptamine receptor 7 (Homo sapiens) (P34969 whole entry): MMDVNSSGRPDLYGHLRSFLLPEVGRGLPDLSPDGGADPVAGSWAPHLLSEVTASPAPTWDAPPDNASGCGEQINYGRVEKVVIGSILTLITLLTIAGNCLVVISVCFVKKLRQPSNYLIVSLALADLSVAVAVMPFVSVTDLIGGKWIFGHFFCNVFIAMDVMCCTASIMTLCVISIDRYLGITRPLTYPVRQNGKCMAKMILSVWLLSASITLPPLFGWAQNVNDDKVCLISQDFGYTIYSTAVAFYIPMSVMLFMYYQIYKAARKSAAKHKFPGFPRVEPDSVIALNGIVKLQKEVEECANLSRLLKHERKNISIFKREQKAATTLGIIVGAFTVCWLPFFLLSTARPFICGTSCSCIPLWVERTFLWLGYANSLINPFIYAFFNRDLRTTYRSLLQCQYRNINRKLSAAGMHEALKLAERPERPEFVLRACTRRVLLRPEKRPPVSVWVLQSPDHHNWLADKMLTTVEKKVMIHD
Chain of Muscarinic acetylcholine receptor M3 (P20309 whole entry, looked up): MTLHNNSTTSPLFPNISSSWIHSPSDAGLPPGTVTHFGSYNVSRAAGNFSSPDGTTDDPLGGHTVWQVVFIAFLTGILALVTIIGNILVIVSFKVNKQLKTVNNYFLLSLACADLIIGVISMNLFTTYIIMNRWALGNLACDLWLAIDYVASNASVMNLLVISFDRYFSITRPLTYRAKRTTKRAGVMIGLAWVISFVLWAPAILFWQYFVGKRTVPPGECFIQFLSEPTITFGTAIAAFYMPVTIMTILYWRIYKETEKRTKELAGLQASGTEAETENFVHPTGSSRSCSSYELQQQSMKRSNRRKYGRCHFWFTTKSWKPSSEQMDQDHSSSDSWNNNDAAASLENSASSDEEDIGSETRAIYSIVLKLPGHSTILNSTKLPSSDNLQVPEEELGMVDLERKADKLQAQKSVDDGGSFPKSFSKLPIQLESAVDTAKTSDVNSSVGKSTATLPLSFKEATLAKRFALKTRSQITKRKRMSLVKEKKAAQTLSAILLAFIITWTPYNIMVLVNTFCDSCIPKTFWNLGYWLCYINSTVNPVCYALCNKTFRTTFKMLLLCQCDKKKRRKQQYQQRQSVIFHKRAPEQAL

Cc1cc(OCCC(C)(C)O)cc(C)c1-c1ccc(F)c2c1CC[C@H]2Oc1ccc2c(c1)OC[C@H]2CC(=O)O
inactive: [1] 22.6% | [2] 9.64% | [3] -2.53% | [4] 13% | [5] 15.1% | [6] 4.25% | [7] 15.6% | [8] 16.6% | [9] -1.99% | [11] 40.4% | [12] 5.84%
active: [10] 68.2%

COCCCS(=O)(=O)c1cc(C)c(-c2ccc(F)c3c2CC[C@H]3Oc2ccc3c(c2)OC[C@H]3CC(=O)O)c(C)c1
inactive: [1] 31.1% | [2] 1.85% | [3] -8.04% | [4] 3.29% | [5] 13.6% | [6] -1.62% | [7] 13.7% | [8] 5.14% | [9] 3.95% | [10] -1.57% | [11] 36.1% | [12] -5.9%
